System: NCI-60 cell lines
Type: cell-based, human

GVYWLRS
Cell Line the peptide is associated with (peptide recovered from phage library selection on this NCI-60 cell line): TK-10 Renal

WFGAVGL
Cell Line with which the peptide (and its tripeptide motif) is associated: Molt-4-Leukemia

SVLGGRL
Cell Line with which the peptide (and its tripeptide motif) is associated: EKVX-Lung

VTRIRVS
Cell Line (NCI-60 cell line the peptide and its motif are associated with): UACC 257 Melanoma

RSTLGPS
Cell Line (NCI-60 cell line the peptide is associated with): HT-29 Colon

WLDAAVK
Cell Line (NCI-60 cell line the peptide is associated with): LOX-IMVI Melanoma

VGSSHGL
Cell Line (NCI-60 cell line the peptide and its motif are associated with): SK-MEL-28 Melanoma

SSTRGVY
Cell Line (NCI-60 cell line the peptide is associated with): HT-29 Colon

HIGLGGL
Cell Line (NCI-60 cell line the peptide is associated with): SF-295 CNS

QVRRGVV
Cell Line (NCI-60 cell line the peptide is associated with): HT-29 Colon

RIGAGHR
Cell Line (NCI-60 cell line the peptide and its motif are associated with): PC3 Prostate

RVSSETF
Cell Line (NCI-60 cell line the peptide and its motif are associated with): A498 Renal

TATGGLL
Cell Line (NCI-60 cell line the peptide and its motif are associated with): OVCAR-8 Ovarian

FLRVGEL
Cell Line with which the peptide (and its tripeptide motif) is associated: Hop-62-Lung

SVTGSVG
Cell Line (NCI-60 cell line the peptide and its motif are associated with): IGROV1 Ovarian

PRGRLFD
Cell Line (NCI-60 cell line the peptide is associated with): HT-29 Colon

TICLGLG
Cell Line the peptide is associated with (peptide recovered from phage library selection on this NCI-60 cell line): CAIK-1 Renal

FDPGGLR
Cell Line the peptide is associated with (peptide recovered from phage library selection on this NCI-60 cell line): SN12C Renal

TGRLSAA
Cell Line (NCI-60 cell line the peptide and its motif are associated with): UACC62 Melanoma

LGSSRVL
Cell Line with which the peptide (and its tripeptide motif) is associated: Hop-92-Lung

RFSSRAV
Cell Line (NCI-60 cell line the peptide and its motif are associated with): IGROV1 Ovarian

LAGSGSH
Cell Line with which the peptide (and its tripeptide motif) is associated: Molt-4-Leukemia

LGGRQES
Cell Line the peptide is associated with (peptide recovered from phage library selection on this NCI-60 cell line): ACHN Renal

ADLGAGW
Cell Line (NCI-60 cell line the peptide and its motif are associated with): OVCAR-4 Ovarian

GRLLAGG
Cell Line with which the peptide (and its tripeptide motif) is associated: Hop-92-Lung

GKGMGLG
Cell Line (NCI-60 cell line the peptide and its motif are associated with): OVCAR-5 Ovarian

LFAVAAV
Cell Line with which the peptide (and its tripeptide motif) is associated: Hop-62-Lung

VRVGRLS
Cell Line (NCI-60 cell line the peptide and its motif are associated with): UACC62 Melanoma

PVSDGLV
Cell Line (NCI-60 cell line the peptide and its motif are associated with): SK-OV-3-3 Ovarian

VRGSRWR
Cell Line (NCI-60 cell line the peptide is associated with): HT-29 Colon

VHSLRAS
Cell Line (NCI-60 cell line the peptide and its motif are associated with): UACC 257 Melanoma

HRVSESV
Cell Line (NCI-60 cell line the peptide and its motif are associated with): OVCAR-5 Ovarian

SYFRAGR
Cell Line with which the peptide (and its tripeptide motif) is associated: H23-Lung

PAASRLL
Cell Line with which the peptide (and its tripeptide motif) is associated: RPMI-8226-Leukemia

PAFGPSR
Cell Line with which the peptide (and its tripeptide motif) is associated: RPMI-8226-Leukemia

GVSALSL
Cell Line (NCI-60 cell line the peptide is associated with): HT-29 Colon

EGVRGVF
Cell Line (NCI-60 cell line the peptide and its motif are associated with): A498 Renal
Cell Line the peptide is associated with (peptide recovered from phage library selection on this NCI-60 cell line): A498 Renal

GAGRFPH
Cell Line (NCI-60 cell line the peptide and its motif are associated with): 786-0 Renal

EVASGLV
Cell Line (NCI-60 cell line the peptide and its motif are associated with): SK-MEL-2 Melanoma

DPRGLRV
Cell Line with which the peptide (and its tripeptide motif) is associated: HL-60-Leukemia

RYGTAGS
Cell Line the peptide is associated with (peptide recovered from phage library selection on this NCI-60 cell line): SN12C Renal

LVGSSRV
Cell Line (NCI-60 cell line the peptide and its motif are associated with): SK-OV-3-3 Ovarian

SGVGSSL
Cell Line with which the peptide (and its tripeptide motif) is associated: EKVX-Lung

SAGGWCA
Cell Line (NCI-60 cell line the peptide is associated with): LOX-IMVI Melanoma

LGGLSER
Cell Line (NCI-60 cell line the peptide and its motif are associated with): SK-OV-3-3 Ovarian

Source: patent publication US7781565B2 (priority 2006, dated 2010)
